# Experimental data as given in patent publication US7504397B2, “mTOR inhibitor compounds” (Kudos Pharmaceuticals Ltd., priority 2005, dated 2009).
# Molecular target: mTOR protein (Homo sapiens, UniProt P42345)
# Assay: mTOR enzyme activity assay (PHAS-1 substrate)
# Assay type: biochemical
# Conditions: recombinant PHAS-1 as substrate
row,Structure (SMILES),IC50 [nM]
1,"COc1cc(-c2csc(-c3ccnc(N4CCOCC4)n3)n2)cc(OC)c1O [Compound 27, 2,6-Dimethoxy-4-[2-(2-morpholin-4-yl-pyrimidin-4-yl)-thiazol-4-yl]-phenol]",< 1500
2,"COc1cc(-c2cncn2-c2ccnc(N3CCOCC3)n2)cc(OC)c1O [Compound 50, 2,6-Dimethoxy-4-[3-(2-morpholin-4-yl-pyrimidin-4-yl)-3H-imidazol-4-yl]-phenol]",< 1500
3,Oc1c(F)cc(-c2csc(-c3ccnc(N4CCOCC4)n3)n2)cc1F [Compound 59a],< 1500
4,O=C(NNc1nc(N2CCOCC2)nc(N2CCOCC2)n1)c1cc(O)c(O)c(O)c1 [Compound 47a],< 1500
5,COc1cc2ncnc(NN=Cc3ccc(O)c(O)c3)c2cc1OC [Compound 41a],< 1500
6,COc1cc(C=NNc2cc(N3CCOCC3)nc(N3CCCCC3)n2)cc(OC)c1O [Compound 12b],< 1500
7,COc1cc(-c2csc(-c3ccnc(N4CCOC[C@@H]4C)n3)n2)cc(OC)c1O [Compound 59i],< 1500

# Next, values leading:
row,IC50 [nM],Structure (SMILES)
1,< 1500,COc1cc(-c2csc(-c3ccnc(N4CCCC(OC)C4)n3)n2)cc(OC)c1O (centres unmarked) [Compound 59j]
2,< 1500,COc1cc(C=NN(C)c2nc(N3CCOCC3)c3cccnc3n2)cc(OC)c1O [Compound 75b]
3,< 1500,COc1cc(-c2csc(-c3ccnc(N4CCOCC4)n3)c2)cc(OC)c1O [Compound 69a]
4,< 1500,CN(N=Cc1cc(O)c(O)c(O)c1)c1nc(N2CCOCC2)c2cccnc2n1 [Compound 75a]
